# Experimental data taken from patent US10238630B2, “Use of eribulin and poly (ADP ribose) polymerase (PARP) inhibitors as combination therapy for the treatment of cancer” (Eisai R&D Management Co., Ltd., priority 2014, dated 2019).
# Columns and labels:
# [1] = test system: MDA-MB-436 human breast cancer xenografts; assay: Antitumor activity against subcutaneous MDA-MB-436 human breast cancer xenografts in SCID mice (three studies); assay type: in vivo
# Protocol: MDA-MB-436 human triple negative breast cancer cells are BRCA1 mutant and PTEN null. Cells were maintained in monolayer cultures in RPMI-1640 growth medium supplemented with 10% fetal bovine serum at 37° C. in a 5% CO2 humidified incubator. On the day of inoculation, cells were harvested by trypsinization, washed, and resuspended in ice-cold PBS. Female immunodeficient SCID mice were inoculated subcutaneously near the right axillary area with MDA-MB-436 cells (5×10^6) in a 1:1 ratio (50 μL each) with Matrigel™ in a volume of 0.1 mL in phosphate buffered saline, using a 26-gauge needle. A total of 125 mice, approximately 6 weeks old were implanted with MDA-MB-436 cells.
# E7449, carboplatin and E7389 were evaluated as single agents and in combination for antitumor activity against MDA-MB-436 human breast cancer xenografts in SCID mice. Three separate studies were performed. The first experiment consisted of a vehicle control group, an E7449 single agent group, two groups treated with single agent E7389 and 2 combination drug-treated groups (Table 1). Thirty mice were inoculated with MDA-MB-436 cells and on Day 58 following implantation, tumor volumes were measured and mice were randomized into the 6 treatment groups based on tumor volume (average of 300 mm^3). Following randomization, drug treatment was initiated. Groups A to D were composed of 5 mice and groups E and F consisted of 4 mice for a total of 28 mice on the first day of treatment. E7449 was formulated in 0.5% methyl cellulose and orally administered once daily for 28 days (starting on Day 58) at 60 mg/kg based on body weight at 0.1 mL per 10 g. E7389 was formulated in saline and was intravenously administered once every 4 days, 4 times (Day 58, 62, 66, and 70) at a dosage of 0.4 or 1.6 mg/kg as single agent or in combination with E7449, based on body weight at 0.1 mL per 10 g. The control group was treated with oral vehicle (0.5% methyl cellulose in water) daily and intravenous vehicle (saline) once every 4 days, 4 times. E7449 or vehicle was administered first and when dosing of all animals was complete, E7389 was administered to animals receiving the combination.
# The second experiment consisted of a vehicle control group, an E7449 single agent group, 2 groups treated with single agent carboplatin, and 2 combination drug-treated groups (Table 2). Thirty-five mice were inoculated with MDA-MB-436 cells and on Day 57, following implantation, tumor volumes were measured and mice were randomized into 6 treatment groups based on tumor volume (average of 250 mm^3). Following randomization drug treatment was initiated. Groups A to D were composed of 5 mice and groups E and F consisted of 6 mice for a total of 32 mice on the first day of treatment. E7449, formulated in 0.5% methyl cellulose was orally administered daily for 28 days (starting on Day 57), at 60 mg/kg based on body weight at 0.1 mL per 10 g. Carboplatin was formulated in saline and was intravenously administered once on the first day of treatment (Day 57) at a dosage of 15 or 60 mg/kg as a single agent or in combination with E7449 based on body weight at 0.1 mL per 10 g. The control group was treated with oral vehicle (0.5% methyl cellulose in water) daily and intravenous vehicle (saline) once on Day 57. E7449 or vehicle was administered first, and when dosing of all animals was complete carboplatin was administered to animals receiving the combination.
# The third experiment consisted of a vehicle control group, 3 groups treated with single agent E7449, E7389, or carboplatin, 3 groups treated with double combinations of E7449+E7389, E7449+carboplatin, and E7389+carboplatin and a group treated with the three-drug combination (Table 3). Sixty mice were inoculated with MDA-MB-436 cells and on Day 41 following implantation, tumor volumes were measured and mice were randomized into 8 treatment groups based on tumor volume (average of 250 mm^3). Following randomization drug treatment was initiated.
# [2] = test system: MDA-MB-231 human breast cancer xenografts; assay: Antitumor activity against subcutaneous MDA-MB-231 human breast cancer xenografts in athymic mice (two studies); assay type: in vivo; conditions: carboplatin 15 and 60 mg/kg IV QDx1, single agent
# Protocol: MDA-MB-231 human triple negative breast cancer cells are wild type for BRCA1 and 2 and PTEN. Cells were maintained in monolayer cultures in RPMI-1640 growth medium supplemented with 10% fetal bovine serum at 37° C. in a 5% CO2 humidified incubator. On the day of inoculation, cells were harvested by trypsinization, washed, and resuspended in ice-cold PBS. Female immunodeficient athymic mice were inoculated subcutaneously near the right axillary area with MDA-MB-231 cells (5×10^6) in a 1:1 ratio (50 μL each) with Matrigel™ in a volume of 0.1 mL in phosphate buffered saline, using a 26-gauge needle. A total of 94 mice, approximately 6 weeks old were implanted with MDA-MB-231 cells.
# E7449, carboplatin and E7389 were evaluated as single agents and in combination for antitumor activity against MDA-MB-231 human breast cancer xenografts in athymic mice. The first experiment consisted of a vehicle control group, an E7449 single agent group, 2 groups treated with single agent E7389 and 2 combination drug-treated groups (Table 5). Thirty-nine mice were inoculated with MDA-MB-231 cells and on Day 21 following implantation, tumor volumes were measured and mice were randomized into the 6 treatment groups based on tumor volume (average of 300 mm^3). Following randomization drug treatment was initiated. Each group was composed of 5 mice for a total of 30 mice on the first day of treatment. E7449 was formulated in 0.5% methyl cellulose and orally administered once daily for 28 days at 100 mg/kg based on body weight at 0.1 mL per 10 g. E7389 was formulated in saline and was intravenously administered once every 4 days, 4 times (Day 21, 25, 29, and 33) at a dosage of 0.05 or 0.1 mg/kg as single agent or in combination with E7449, based on body weight at 0.1 mL per 10 g. The control group was treated with oral vehicle (0.5% methyl cellulose in water) daily and intravenous vehicle (saline) once every 4 days, 4 times. E7449 or vehicle was administered first and when dosing of all animals was complete E7389 was administered to animals receiving the combination.
# The second experiment consisted of a vehicle control group, 2 groups treated with single agent E7449, 2 groups treated with single agent carboplatin and 3 combination drug-treated groups (Table 6). Fifty five mice were inoculated with MDA-MB-231 cells and on Day 18 following implantation, tumor volumes were measured and mice were randomized into 8 treatment groups based on tumor volume (average of 300 mm^3). Following randomization drug treatment was initiated. Each group consisted of 5 mice for a total of 40 mice on the first day of treatment. E7449, formulated in 0.5% methyl cellulose was orally administered daily for 28 days, at 60 or 100 mg/kg based on body weight at 0.1 mL per 10 g. Carboplatin was formulated in saline and was intravenously administered once on the first day of treatment (Day 18) at a dosage of 15 or 60 mg/kg as a single agent or in combination with E7449 based on body weight at 0.1 mL per 10 g. The control group was treated with oral vehicle (0.5% methyl cellulose in water) daily and intravenous vehicle (saline) once on Day 18. E7449 or vehicle was administered first and when dosing of all animals was complete carboplatin was administered to animals receiving the combination.
# Drug treatment was initiated 21 or 18 days post tumor implantation, in the E7389 and carboplatin combination studies respectively, and continued for 28 days. […]
smiles,measurement,setting,value
N.N.O=C([O-])C1(C(=O)[O-])CCC1.[Pt+2] [carboplatin],antitumor effect (tumor volume),"[1]; E7449+carboplatin study, carboplatin 15 and 60 mg/kg IV QDx1, single agent",Dose-dependent antitumor activity
same,antitumor effect (tumor volume),"[1]; triple combination study, carboplatin 7.5 mg/kg IV QDx1, single agent",statistically significant tumor growth inhibition
same,antitumor effect (tumor volume),[2],Modest antitumor activity
